The series is described as follows: Peptide self-association by temperature profiling in RP-HPLC. The class given is physicochemical. Particulars: for PA: self-association parameter relative to random coil control peptide RC; for Tp: temperature at which maximum retention time is observed, 5-77° C. The method, then:
Retention behavior from eight AMPs after normalization to their retention times at 5° C. over the temperature range 5° C. to 41° C. in 2° C. increments or 5° C. to 75° C. in 10° C. increments (methodology details provided in Examples). […] Peptide denotions in FIG. 5 have been abbreviated from those shown in Table 1G; for example, D87(Lys1-6 Arg-1) has been shortened to D87(6 Arg-1). RC is a random coil control peptide used for RP-HPLC temperature profiling. The peptide self-association parameter, PA, represents the maximum change in peptide retention time relative to the random coil peptide, RC (PA values shown in Table 6). […] T., et al. J. Med. Chem. 2019, 62:3354-66.
Hemoglobin release was determined spectrophotometrically at 570 nm.
Peptide self-association, the ability to dimerize/oligomerize in aqueous solution, is a very important parameter to optimize antimicrobial activity and toxicity as measured by hemolytic activity. We have proposed that the monomeric random-coil antimicrobial peptides in aqueous solution are best suited to pass through a polysaccharide capsule, the outer membrane lipopolysaccharide and the cell wall peptidoglycan layer of Gram-negative bacteria prior to penetration into the cytoplasmic membrane, where there is induction of α-helical structure and disruption of membrane structure, cell leakage and death of bacterial cells. In contrast, if the self-association ability of an AMP in aqueous medium is too strong, stable folded dimers/oligomers are formed through interaction of their non-polar faces which decreases the ability of the AMP to dissociate to monomer and the dimer/oligomer to effectively pass through the capsule and cell wall to reach the cytoplasmic membrane. The ability of an AMP to self-associate was determined by a RP-HPLC technique developed in our laboratory, referred to as temperature profiling over the temperature range 5° C. to 80° C. […] These eight AMPs are compared to a random-coil control peptide denoted RC. […] This linear decrease in retention behavior with increasing temperature represents the general effects of temperature due to greater solute diffusivity and enhanced mass transfer between the mobile and stationary phases. The difference in retention time between an amphipathic α-helical antimicrobial peptide and the RC control peptide is a measure of the ability of a peptide to associate. The association parameter, PA is large for AMPs without specificity determinants (Ala 13 and Ala 16) ranging from 12.5 to 28.0 min (Table 6) and is shown by a black arrow in FIG. 5. The association parameter, PA, is dramatically smaller for AMPs with specificity determinants (Lys 13 and Lys 16 in the center of the non-polar face) and range from 0 to 6 min (Table 6). […]

Each structure is given as a SMILES string.

On to `CC(=O)N[C@H](CCCCN)C(=O)N[C@H](CC(C)C)C(=O)N[C@H](CN)C(=O)N[C@H](CO)C(=O)N[C@H](CC(C)C)C(=O)N[C@H](CC(C)C)C(=O)N[C@H](CN)C(=O)N[C@@H](C(=O)N[C@H](CC(C)C)C(=O)N[C@H](CO)C(=O)N[C@H](CN)C(=O)N[C@H](C)C(=O)N[C@H](C)C(=O)N[C@H](C)C(=O)N[C@H](C)C(=O)N[C@H](C)C(=O)N[C@H](CC(C)C)C(=O)N[C@H](CN)C(=O)N[C@@H](C(=O)N[C@H](CC(C)C)C(=O)N[C@H](CC(C)C)C(=O)N[C@H](CN)C(=O)N[C@H](C)C(=O)N[C@H](CC(C)C)C(=O)N[C@H](CO)C(=O)N[C@H](CN)C(N)=O)[C@H](C)O)[C@H](C)O` [D105(K13A/K16A)-(Lys^1-6Dap-1), Ac-KL(Dap)SLL(Dap)TLS(Dap)AAAAAL(Dap)TLL(Dap)ALS(Dap)-amide], for which the PA is reported as 18.0 min and the Tp was 39.0 °C.
In the case of `CC(=O)N[C@H](CCCCN)C(=O)N[C@H](CC(C)C)C(=O)N[C@H](CCN)C(=O)N[C@H](CO)C(=O)N[C@H](CC(C)C)C(=O)N[C@H](CC(C)C)C(=O)N[C@H](CCN)C(=O)N[C@@H](C(=O)N[C@H](CC(C)C)C(=O)N[C@H](CO)C(=O)N[C@H](CCN)C(=O)N[C@H](C)C(=O)N[C@H](C)C(=O)N[C@H](C)C(=O)N[C@H](C)C(=O)N[C@H](C)C(=O)N[C@H](CC(C)C)C(=O)N[C@H](CCN)C(=O)N[C@@H](C(=O)N[C@H](CC(C)C)C(=O)N[C@H](CC(C)C)C(=O)N[C@H](CCN)C(=O)N[C@H](C)C(=O)N[C@H](CC(C)C)C(=O)N[C@H](CO)C(=O)N[C@H](CCN)C(N)=O)[C@H](C)O)[C@H](C)O` [D86(K13A/K16A)-(Lys^1-6Dab-1), Ac-KL(Dab)SLL(Dab)TLS(Dab)AAAAAL(Dab)TLL(Dab)ALS(Dab)-amide], the PA is 12.5 min and the Tp was found to be 31.0 °C.

(Values after patent US20220105150A1, “AMPHIPATHIC ALPHA-HELICAL ANTIMICROBIAL PEPTIDES TREAT INFECTIONS BY GRAM-NEGATIVE PATHOGENS” (priority 2019, published 2022).)
